According to patent publication US9616075B2, “Method of treating and preventing brain impairment using Na+-K+-2Cl-cotransporter isoform 1 inhibitors” (University of Rochester, priority 2012, dated 2017):
Where two headings read alike, the source gives them in different places.

Columns and labels:
[1] = test system: cortical inhibitory networks; test: Paired-pulse whisker stimulation (paired-pulse ratio, cortical inhibitory function) in awake mice; format: in vivo, mouse; settings: for Paired-pulse ratio (PPR): awake mice
Protocol: (§1) Recordings were analyzed offline using pClamp 10.2.
Next, it was investigated how cortical ammonia toxicity leads to neurological dysfunction and seizures. […] Neurobiol. […] The whisker stimulation paradigm elicits two successive field excitatory post-synaptic potentials (fEPSP), where the second fEPSP has lower amplitude due to activation of cortical inhibitory networks (quantified by a paired-pulse ratio (PPR)<1).

[2] = Otc^spf-ash mice after 7.5 mmol kg^−1 i.p. ammonia load (baseline 0.32±0.07)
Protocol: Biochemical and Hemodynamic Analysis—Plasma ammonia analysis was performed on blood samples collected using 50 μL heparinized tubes from the femoral artery. A L-glutamate dehydrogenase based kit (Sigma) was used for the quantification of ammonia in plasma.

[3] = test system: Otc^spf-ash mice; test: NH4+ and K+ ion-sensitive microelectrode (ISM) recordings from cortex of awake mice; settings: mean±SEM
Protocol: Body temperature was maintained with a heating pad. For systemic drug treatment, a polyethylene intraperitoneal (i.p.) catheter was surgically implanted to deliver drugs accurately and with minimal manipulation. For cortical drug application artificial cerebrospinal fluid (aCSF) was perfused across the cortex of awake mice at a rate of 2 mL/minute, into a custom-made well with ˜200 μL volume, through tubing with ˜100 μL volume, meaning the entire volume bathing the brain was exchanged approximately every 9 seconds.
Electrophysiological Recordings—In vivo recordings were obtained from layer II somatosensory cortex. […] ISMs of K^+ and NH4^+ were pulled from double-barreled pipette glass (PB150-6, WPI) with a tip of 1-3 μm. The pipettes were silanized (coated) with dimethylsilane I (Fluka, Sigma) and filled with either K^+ ionophore I cocktail B (Fluka, selectivity coefficient −1.8 log(K^+/NH4^+)) or NH4+ ionophore I cocktail B (Fluka, −0.9 log(NH4^+/K^+)). […] Ion-sensitive microelectrode (ISM) signals were amplified (FD223a by WPI), externally filtered and digitized as above, and reference field potential traces were subtracted.
Ion Sensitive Microelectrode (ISM) Fabrication—Ion Sensitive Microelectrodes (ISMs) of K^+ and NH4^+ were pulled from double-barreled pipette glass (PB150-6, WPI) with a tip of 1-3 μm. The pipettes were silanized (coated) with dimethylsilane I (Fluka, Sigma). […] The K^+ ionophore has a selectivity coefficient relative to NH4^+ of −1.8 log (K^+/NH4^+), and the NH4^+ ionophore has a selectivity coefficient relative to K^+ of −0.9 log (NH4^+/K^+). […] The reference barrels were used to record the DC potentials and were filled with 0.15 M NaCl. In selected experiments, single barrel electrodes were also used in combination with single reference electrodes. K^+ and NH4^+ ISM traces were subtracted for interference by calculating the mV response to the increase of the other ion in calibration solutions. All ISMs were calibrated before and after each experiment. […] Calibration data were fitted to the Nikolsky equation to determine electrode slope and interference.

[4] = test system: Otc^spf-ash mice; test: Sensory-motor phenotype score; format: in vivo, mouse; settings: Otc^spf-ash mice after systemic NH4Cl load 7.5 mmol kg^−1; bumetanide 30 mg kg^−1 i.p.
Protocol: Mouse movement and seizure activity were omitted from this score, because it was desired that these manifestations be independently and more quantitatively represented. The score thus consisted of four elements: hyperacusis (0-2), imbalance (0-3), ataxia/tremor (0-3) and level of consciousness (0-3). A maximum score of 11 represents deep coma (no corneal reflex) whilst 0 represents normal wakefulness. Each animal was scored after the first 5 minutes and then every 15 minutes as they progressed through the stereotypical stages of ammonia neurotoxicity. […] Ataxia/tremor was scored using a gait test, where the mouse was encouraged to walk for a short distance. […] Consciousness was scored as either 0 for awake, 1 loss of scatter reflex, 2 loss of righting reflex (LORR), 3 loss of corneal reflex.

[5] = test system: pyramidal neurons; test: Whole-cell voltage clamp with ramp voltage and GABA application in acute cortical slices (EGABA); format: cell-based, mouse
Text: (§3) Electrophysiological Recordings—In vivo recordings were obtained from layer II somatosensory cortex. In situ recordings were obtained from layer II in coronal cortical slices prepared from P21-30 mice. ISMs of K^+ and NH4^+ were pulled from double-barreled pipette glass (PB150-6, WPI) with a tip of 1-3 μm. The pipettes were silanized (coated) with dimethylsilane I (Fluka, Sigma) and filled with either K^+ ionophore I cocktail B (Fluka, selectivity coefficient −1.8 log(K^+/NH4^+)) or NH4+ ionophore I cocktail B (Fluka, −0.9 log(NH4^+/K^+)). […] Ion-sensitive microelectrode (ISM) signals were amplified (FD223a by WPI), externally filtered and digitized as above, and reference field potential traces were subtracted. […] Recordings were analyzed offline using pClamp 10.2.
(§4) In Situ Electrophysiology—Coronal cortical slices were prepared from P21-30 mice, as described previously. […] All experiments were performed at 32-35° C. […] Whole-cell patch-clamp recordings were done using electrodes with 3-5 M106 resistance, and an intracellular solution containing 135 mM K-methylsulfate, 10 mM KCl, 10 mM hepes, 5 mM NaCl, 2.5 mM Mg-ATP, 0.3 mM Na-GTP (pH 7.3), containing Alexa Fluor® 350 (Invitrogen). Signals were low-pass filtered at 2 kHz and digitized at 10 kHz using Axopatch MultiClamp 700A and Digidata 1320A (Axon Instruments).

[6] = test system: astrocytes; settings: n = 52 cells, mean±SEM; for Astrocyte calcium transient Freq.: awake Otc^spf-ash mice, 100 μm below pial surface
Text: Body temperature was maintained with a heating pad.
Two-Photon Laser Scanning Microscopy (2PLSM)—A Mai Tai laser (SpectraPhysics) attached to a confocal scanning system (Fluoview 300, Olympus) and an upright microscope (IX51W) was used. Briefly, volume changes and calcium activity were imaged in cortex 100 μm below the pial surface, as described previously, using a 60× (1.1 NA) and a 20× (0.95 NA) lens, respectively. For in vivo volumetry xyzt image series were collected (z-step 1.5 μm, every 5 minutes) with acquisition time<20 seconds and laser power<40 mW. For in vivo calcium imaging, dual channel (rhod-2 and eGFP) frames were collected at 0.2 or 2 Hz. A low sampling rate and <20 mW laser were used to avoid photo damage. […] Therefore, each animal was tested for optimal loading by performing whisker stimulation, to verify a physiological calcium response. Wang et al., “Astrocytic Ca^2+ Signalling Evoked by Sensory Stimulation In Vivo,” Nat. Neurosci. 9:816-823 (2006), which is hereby incorporated by reference in its entirety. A calcium transient was defined as an event where the relative ratio between the rhod-2 and eGFP signal intensities (ΔF/F0) was >2 standard deviations […] from baseline. Beginning and end were defined as ΔF/F0>0.5 π and <0.5 π respectively. Amplitude was taken as the peak ΔF/F0 in this interval. For in situ volumentric imaging acute cortical slices were loaded with texas red hydrazide (1.5 μM, a fixable sulforhodamine 101 derivative) in aCSF for 50 minutes. Volume and calcium recordings were analyzed using previously described custom-made software (MatLab Inc.).
Data in Table 2 is from analysis of 2PLSM xyt series, where calcium indicator rhod-2 was used to detect astrocyte calcium transients 100 μm below the pial surface. Data are shown as mean±SEM.

[7] = test system: awake mice; test: Myoclonic event (ME) frequency on EEG in awake mice; format: in vivo, mouse
Text: Electrophysiological Recordings—In vivo recordings were obtained from layer II somatosensory cortex. In situ recordings were obtained from layer II in coronal cortical slices prepared from P21-30 mice. ISMs of K^+ and NH4^+ were pulled from double-barreled pipette glass (PB150-6, WPI) with a tip of 1-3 μm. The pipettes were silanized (coated) with dimethylsilane I (Fluka, Sigma) and filled with either K^+ ionophore I cocktail B (Fluka, selectivity coefficient −1.8 log(K^+/NH4^+)) or NH4+ ionophore I cocktail B (Fluka, −0.9 log(NH4^+/K^+)). […] Electroencephalogram (EEG) signals were externally filtered at 6 Hz (Filter Butterworth Model by Encore, Axopatch 200B by Axon Instruments), band pass filtered at 1-100 Hz and digitized (Digidata 1440A by Axon Instruments). Ion-sensitive microelectrode (ISM) signals were amplified (FD223a by WPI), externally filtered and digitized as above, and reference field potential traces were subtracted. In selected experiments, wireless electromyogram (EMG) and electroencephalogram (EEG) electrodes were implanted (DSI Physiotel®), and an extracellular microelectrode was placed in the thalamus (ventrobasal complex). Recordings were analyzed offline using pClamp 10.2. Myoclonic events (ME) were defined on the EEG as single or multiple 3-9 Hz polyspike and wave discharges (SWD) of 0.2-2 second duration associated with myoclonic jerks determined by video recording, EMG or direct observation.

[8] = test system: Otc^spf-ash mice; test: Automated video analysis of spontaneous mouse movement; format: in vivo; settings: Otc^spf-ash mice after systemic NH4Cl load 7.5 mmol kg^−1; bumetanide 30 mg kg^−1 i.p.
Protocol: Otc^spf-ash mice were crossed with Glt-1-eGFP mice for imaging experiments. C57BL/6J mouse and Wistar rat pups were obtained from Jackson Laboratories. To analyze cognitive abilities in OTC mice, two commercial conditioning chambers (H10-11M-TC, Coulbourn Instruments) were adapted for contextual fear conditioning. Over the course of 4 days, mice were trained via a tone/shock protocol and trained to fear contextual and auditory cues. […] Automated movement analysis was performed using AnyMazeTM software analysis of CCD-camera recordings in a standard mouse cage.

[9] = test system: Na^+—K^+-ATPase (NKA)
Protocol: Cell Culture Assays—Cultured neocortical astrocytes were prepared from P1-2 mouse and rat pups as previously described. Wang et al., “Astrocytes Modulate Neural Network Activity by Ca(2)(+)-Dependent Uptake of Extracellular K(+),” Science Signaling 5:ra26 (2012); Lin et al., “Gap-Junction-Mediated Propagation and Amplification of Cell Injury,” Nat. Neurosci. 1:494-500 (1998), which are hereby incorporated by reference in their entirety. For ^86Rb^+ experiments the cultures were incubated for 10 minutes±ouabain (1 mM). The potassium analogue ^86Rb^+ was then added to each well plate for 15 minutes (1 μCi, Perkin Elmer). The reaction was stopped by placing the cells on ice and washed with ice-cold aCSF. The cells were lysed and ^86Rb^+ uptake quantified by liquid scintillation counting (Beckman Coulter). For Na^+—K^+-ATPase activity, astrocyte cultures were utilized as previously described, and enzyme activity was quantified using the malachite green reaction (Sigma) and analyzed using spectrophotometry. Anupama et al. “Comparison of Na—K ATPase Activity in Rat Brain Synaptosome Under Various Conditions,” Neurochem. Int. 33:283-286 (1998), which is hereby incorporated by reference in its entirety.

[10] = test system: cortical slices; settings: 7 mM ammonia in perfusate
Text: as §3, §4

[11] = 1H-NMR brain amino acid concentrations; format: in vivo, mouse; settings: 30 minutes after administration, mean±SEM
Protocol: ^1H-NMR Spectroscopy—Mice were anesthetized using 1.5% isoflurane and decapitated. Forebrains (whole brain minus cerebellum/brainstem) were quickly extracted, frozen in liquid nitrogen, and homogenized in 7.5 mL 12% PCA at 0° C. using a micro-sonicator. The homogenate was centrifuged at 25,000 G for 15 minutes, and the supernatants were neutralized to pH 7.0 with KOH over an ice bath. A further 15 minute centrifugation (25,000 G) separated the resultant KClO4, and the supernatant was lyophilized before being reconstituted with 0.65 ml D2O. ^1H-NMR spectra were acquired using a 600 mHz Varian Unity NOVA spectrometer equipped with a triple-axis gradient HCN probe (standard room temperature). Signals were acquired following a 90° pulse with a spectral width of 7200 Hz and 32K data points. The time between pulses was 15 seconds and 64 signals were averaged for each spectrum. The sample temperature was 25° C. Integrals of the relevant peaks were converted to μmol/gram wet-weight and normalized NAA (methyl) to increase inter-sample consistency.

[12] = test system: astrocytes; settings: awake Otc^spf-ash mice, ammonia load
Protocol: Two-Photon Laser Scanning Microscopy (2PLSM)—A Mai Tai laser (SpectraPhysics) attached to a confocal scanning system (Fluoview 300, Olympus) and an upright microscope (IX51W) was used. Briefly, volume changes and calcium activity were imaged in cortex 100 μm below the pial surface, as described previously, using a 60× (1.1 NA) and a 20× (0.95 NA) lens, respectively. For in vivo volumetry xyzt image series were collected (z-step 1.5 μm, every 5 minutes) with acquisition time<20 seconds and laser power<40 mW. For in vivo calcium imaging, dual channel (rhod-2 and eGFP) frames were collected at 0.2 or 2 Hz. A low sampling rate and <20 mW laser were used to avoid photo damage. […] Therefore, each animal was tested for optimal loading by performing whisker stimulation, to verify a physiological calcium response. Wang et al., “Astrocytic Ca^2+ Signalling Evoked by Sensory Stimulation In Vivo,” Nat. Neurosci. 9:816-823 (2006), which is hereby incorporated by reference in its entirety. A calcium transient was defined as an event where the relative ratio between the rhod-2 and eGFP signal intensities (ΔF/F0) was >2 standard deviations […] from baseline. Beginning and end were defined as ΔF/F0>0.5 π and <0.5 π respectively. Amplitude was taken as the peak ΔF/F0 in this interval. […] Volume and calcium recordings were analyzed using previously described custom-made software (MatLab Inc.).

[13] = test system: NKCC1; settings: NKCC1 knock-out Slc12a2^−/−
Protocol: as §1
(§2) Because EGABA is heavily dependent on chloride transporters, the diuretic bumetanide was next tested, a highly specific NKCC1 inhibitor used in clinical practice to treat heart failure. Hannaert et al., “Rat NKCC2/NKCC1 Cotransporter Selectivity For Loop Diuretic Drugs,” Naunyn Schmiedebergs Arch. Pharmacol. 365:193-199 (2002); Dzhala et al., “NKCC1 Transporter Facilitates Seizures in the Developing Brain,” Nat. […] To ensure the molecular specificity of bumetanide, gramicidin-perforated patch recordings were also performed in conditional NKCC1 knock-out (Slc12a2^−/−) and wild-type littermates (Slc12a2′^+/+).

[14] = target: NKCC1 (Mus musculus, UniProt P55012); settings: wild-type Slc12a2^+/+
Chain of NKCC1 (Mus musculus, UniProt P55012) (P55012 whole entry): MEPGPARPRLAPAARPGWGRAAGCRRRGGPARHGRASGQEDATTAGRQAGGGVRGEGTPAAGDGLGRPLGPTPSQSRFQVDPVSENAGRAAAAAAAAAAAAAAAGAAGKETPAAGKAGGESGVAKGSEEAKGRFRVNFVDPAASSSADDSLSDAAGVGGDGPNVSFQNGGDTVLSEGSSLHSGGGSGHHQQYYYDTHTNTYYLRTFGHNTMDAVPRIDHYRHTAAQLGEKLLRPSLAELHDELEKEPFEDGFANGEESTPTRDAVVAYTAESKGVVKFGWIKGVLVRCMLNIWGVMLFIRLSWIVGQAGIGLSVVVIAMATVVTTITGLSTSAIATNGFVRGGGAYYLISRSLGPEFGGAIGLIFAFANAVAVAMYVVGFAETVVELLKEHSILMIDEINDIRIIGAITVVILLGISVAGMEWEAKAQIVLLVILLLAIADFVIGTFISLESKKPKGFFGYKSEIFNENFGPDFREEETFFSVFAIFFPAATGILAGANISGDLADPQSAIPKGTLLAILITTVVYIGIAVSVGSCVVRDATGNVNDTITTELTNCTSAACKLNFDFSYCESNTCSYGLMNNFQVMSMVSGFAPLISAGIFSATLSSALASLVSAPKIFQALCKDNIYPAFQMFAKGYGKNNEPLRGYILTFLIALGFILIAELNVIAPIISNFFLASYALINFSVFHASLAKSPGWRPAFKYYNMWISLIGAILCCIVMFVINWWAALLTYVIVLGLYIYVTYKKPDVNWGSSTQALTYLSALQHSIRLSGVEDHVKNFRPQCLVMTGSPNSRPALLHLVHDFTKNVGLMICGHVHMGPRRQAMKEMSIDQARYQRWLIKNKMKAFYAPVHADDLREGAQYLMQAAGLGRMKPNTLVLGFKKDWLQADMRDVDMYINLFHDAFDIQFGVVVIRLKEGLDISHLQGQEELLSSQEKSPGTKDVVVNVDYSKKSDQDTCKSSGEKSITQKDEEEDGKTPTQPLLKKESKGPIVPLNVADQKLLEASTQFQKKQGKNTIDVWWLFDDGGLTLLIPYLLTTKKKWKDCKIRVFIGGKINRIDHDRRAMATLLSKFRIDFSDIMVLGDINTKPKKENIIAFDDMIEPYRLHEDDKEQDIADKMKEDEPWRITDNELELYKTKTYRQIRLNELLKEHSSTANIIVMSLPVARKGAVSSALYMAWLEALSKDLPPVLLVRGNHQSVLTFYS
Protocol: as §1, §2

[15] = test system: Otc^spf-ash mice; test: Survival after ammonia overdose (Cox regression); format: in vivo, mouse
Protocol: Where n≧10 for normally distributed data, the unpaired t test or ANOVA were used for independent samples, and paired t test for paired samples. Where n<10 non-parametric tests including Mann-Whitney U and Kruskall-Wallis were used for independent samples, and Wilcoxon signed ranks test for paired samples. Overdose survival was compared using Cox regression model (controlling for the confounding effect of mouse weight).
To test the validity of the present in situ model, awake animals were tested (FIG. 4A). […] To investigate whether this improvement of neuronal function translated into a clinically relevant improvement in disease phenotype, the phenotype measures outlined in FIGS. 1A-1I were employed.

[16] = during cortical KCl application (12.5 mM) ± bumetanide 5 μM
[17] = cortical superfusion (NH4Cl 10 mM, BUM 5 μM)
[18] = intraperitoneal injection (NH4Cl 7.5 mmol kg^−1, BUM 30 mg kg^−1)
[19] = cortical NH4Cl (10 mM) ± bumetanide
[20] = systemic NH4Cl (7.5 mmol kg^−1) ± bumetanide
[21] = after washout of cortical NH4Cl (± bumetanide)
[22] = during cortical NH4Cl application (10 mM) ± bumetanide 5 μM
[23] = Otc^spf-ash mice, ammonia 7.5 mmol kg^−1 i.p.

SMILES | Paired-pulse ratio (PPR) [1, 16] | [NH4^+]o [3, 17] [mM] | [NH4^+]o [3, 18] [mM] | Δ[K^+]o [3, 18] [mM] | Sensory-motor phenotype score (out of 11) [4] | ME frequency [7, 19] [ME min^−1] | ME frequency [7, 20] [ME min^−1] | Spontaneous mouse movement [8] [m min^−1] | Paired-pulse ratio (PPR) after washout [1, 21] | Paired-pulse ratio (PPR) [1, 22] | Brain GABA [11, 23] [μmol g^−1 wet weight] | Brain Glutamate [11, 23] [μmol g^−1 wet weight] | Brain Glutamine [11, 23] [μmol g^−1 wet weight] | Brain GABA ([11]; WT mice) [μmol g^−1 wet weight] | Brain Glutamate ([11]; WT mice) [μmol g^−1 wet weight] | Brain Glutamine ([11]; WT mice) [μmol g^−1 wet weight] | also measured
[Cl-].[K+] [KCl] | 1.48±0.22 | – | – | – | – | – | – | – | – | – | – | – | – | – | – | – | Paired-pulse ratio (PPR) after washout ([1]; after washout of cortical KCl): 0.63±0.14
N [NH4Cl] | – | 5.82 ± 0.18 | 4.83 ± 0.52 | 1.93 ± 0.19 | 9.00±0.46 | 1.02±0.07 | 2.66±0.14 | 0.42±0.22 | 0.61±0.15 | 1.56±0.24 | 2.46 ± 0.13 | 13.24 ± 0.33 | 9.25 ± 0.34 | 2.19 ± 0.12 | 12.49 ± 0.15 | 8.69 ± 0.33 | Extracellular ammonia concentration in plasma [2]: 4.21 ± 0.59 mM; Δ[K^+]o ([3]; intraperitoneal injection (NH4Cl 7.5 mmol kg^−1, BUM 30 mg kg^−1), listed as ammonia): 1.93 ± 0.19 mM; Depolarization of EGABA ([5]; ammonia 7 mM in perfusate, pyramidal neurons, ramp voltage 0 to −120 mV): +12.33±3.66 mV; Astrocyte calcium transient Freq. [6]: 9.03 ± 1.16 Hz cell^−1 × 10^−3; Astrocyte calcium transient Freq. ([6]; listed as ammonia): 9.03±1.16 Hz cell^−1 × 10^−3; Astrocyte calcium Cell-cell correlation ([6]; awake mice): 0.26 ± 0.08; Astrocyte calcium transient Amplitude (ΔF/F0) ([6]; awake mice): 0.47 ± 0.32; Astrocyte calcium transient Duration ([6]; awake mice): 21.51 ± 4.55 s; Astrocyte calcium Cell-cell correlation ([6]; awake mice, listed as ammonia): 0.26±0.08; NKA activity with NH4Cl substituted for KCl ([9]; NH4Cl 15 mM, cell-free): able to maintain normal NKA activity; NKA-dependent (ouabain-sensitive) 86Rb^+ uptake ([9]; ammonia 0.5-10 mM, cultured astrocytes): dose-dependent reduction; Increase in [K^+]o [10]: 1.88 ± 0.13 mM; Increase in [NH4^+]o [10]: 3.67 ± 0.53 mM; Astrocyte swelling [12]: no significant astrocyte swelling; Transient astrocyte shrinkage [12]: 5.04±0.85%; Depolarizing effect on EGABA [13]: +1.00±1.07; Depolarizing effect on EGABA [14]: +11.14±1.22
CCCCNc1cc(C(=O)O)cc(S(N)(=O)=O)c1Oc1ccccc1 [bumetanide] | 0.92±0.18 | 0.52 ± 0.11 | 0.42 ± 0.16 | 0.0073 ± 0.015 | 6.00±0.72 | 0.10±0.02 | 0.32±0.02 | 3.17±0.46 | 0.59±0.17 | 0.88±0.15 | 2.39 ± 0.13 | 14.27 ± 0.23 | 8.70 ± 1.54 | 2.55 ± 0.05 | 14.38 ± 0.22 | 4.52 ± 0.18 | Effect on ammonia-induced depolarization of EGABA ([5]; bumetanide 5 μM pre-incubation): successfully prevented; Survival after ammonia overdose increased by a factor ([15]; NH4Cl overdose 10 mmol kg^−1, Otc^spf-ash mice): 3.87; Hazard rate ratio ([15]; NH4Cl overdose 10 mmol kg^−1, 95% confidence interval 0.08 to 0.87): 0.26
